In patent US20240132515A1, “TOXIN MOLECULE SUITABLE FOR ANTIBODY-DRUG CONJUGATE” (MINGHUI PHARMACEUTICAL (HANGZHOU) LIMITED, priority 2021, published 2024) one finds GI50 data, which are given here for 16 molecules.

The assay concerns KPL-4 Cells. Briefly: Cell Proliferation Inhibition Test (CellTiter-Glo, 72 h). The class given is cell-based. Conditions: KPL4, 72 h incubation, CellTiter-Glo luminescence. Here is the method: Cell Proliferation Inhibition Test KPL-4 Cells in the logarithmic phase of growth were collected and re-suspended with fresh RPMI1640 complete cell culture medium, and adjusted to 2×10^4 cells/mL after cell counting. Cells were seeded into 96-well cell culture plates at 100 μL/well, and placed in a CO2 incubator (37° C., 5% CO2) overnight. In the next day, one of the cell culture plates were taken out, balanced to room temperature, and CellTiter-Glo reagent (Promega, USA), which was pre-balanced to room temperature and evenly mixed, was added into the plate at 100 μl. The plate was kept in dark for 30 min, and then luminescence value was read with a microplate reader (denoted as G0 value). The other cell culture plates were taken out and added with different concentrations of test compounds or DMSO (final concentration 0.5%) in corresponding wells. After incubated for 72 h in a CO2 incubator, the cell culture plates were balanced to room temperature and tested for cell viabilities using CellTiter-Glo reagent as described above (denoted as G3 value).
The cell proliferation rates were calculated using the following formula: Cell proliferation rate (%)=(mean of G3compound−mean of G0)/(mean of G3DMSO−mean of G0)×100.
What is called GI50 is the concentration giving 50% growth inhibition. As to `CC[C@@]1(O)C(=O)OCc2c1cc1n(c2=S)Cc2c-1nc1cc(F)c(C)c3c1c2[C@H](NC(=O)C(C)(C)O)CC3` [Example 10], the GI50 is 3.54 nM.
With `CC[C@@]1(O)C(=O)OCc2c1cc1n(c2=S)Cc2c-1nc1cc(F)c(C)c3c1c2[C@@H](NC(C)=O)CC3` [Example 3] the figure was 2.59 nM; with `CC[C@@]1(O)C(=O)OCc2c1cc1n(c2=S)Cc2c-1nc1cc(F)c(C)c3c1c2[C@@H](NC(=O)C(O)Cc1ccccc1)CC3` (stereo partly shown) [Example 7], 5.76 nM; with `CC[C@@]1(O)C(=O)OCc2c1cc1n(c2=S)Cc2c-1nc1cc(F)c(C)c3c1c2[C@@H](NC(=O)C(C)(C)O)CC3` [Example 9], 12.1 nM.
The same measure for `CC[C@@]1(O)C(=O)OCc2c1cc1n(c2=S)Cc2c-1nc1cc(F)c(C)c3c1c2[C@@H](NC(=O)CN)CC3` [Example 13]: 7.54 nM; for `CC[C@@]1(O)C(=O)OCc2c1cc1n(c2=S)Cc2c-1nc1cc(F)c(C)c3c1c2[C@H](NC(=O)C(O)CC1CC1)CC3` (stereo partly shown) [Example 20]: 4.79 nM; for `CC[C@@]1(O)C(=O)OCc2c1cc1n(c2=S)Cc2c-1nc1cc(F)c(C)c3c1c2[C@H](NC(=O)C1(O)CC1)CC3` [Example 18]: 3.89 nM.
The same measure for `CC[C@@]1(O)C(=O)OCc2c1cc1n(c2=O)Cc2c-1nc1cc(F)c(C)c3c1c2[C@@H](NC(=O)CO)CC3` [DXd, reference compound]: 72 nM; for `CC[C@@]1(O)C(=O)OCc2c1cc1n(c2=S)Cc2c-1nc1cc(F)c(C)c3c1c2[C@H](NC(=O)C(O)C1CC1)CC3` (stereo partly shown) [Example 21]: 34.7 nM.
For `CC[C@@]1(O)C(=O)OCc2c1cc1n(c2=S)Cc2c-1nc1cc(F)c(C)c3c1c2[C@H](NC(=O)CN)CC3` [Example 14], it took 6.14 nM to inhibit growth by half (GI50).
`CC[C@@]1(O)C(=O)OCc2c1cc1n(c2=S)Cc2c-1nc1cc(F)c(C)c3c1c2[C@@H](NC(=O)C(O)CC1CC1)CC3` (stereo partly shown) [Example 19] yielded a GI50 of 2.9 nM.
Molecule `CC[C@@]1(O)C(=O)OCc2c1cc1n(c2=S)Cc2c-1nc1cc(F)c(C)c3c1c2[C@H](NC(=O)C(O)c1ccccc1)CC3` (stereo partly shown) [Example 6] had a GI50 of 5.31 nM.
The same measure for `CC[C@@]1(O)C(=O)OCc2c1cc1n(c2=S)Cc2c-1nc1cc(F)c(C)c3c1c2[C@H](NC(C)=O)CC3` [Example 4]: 1.55 nM; for `CC[C@@]1(O)C(=O)OCc2c1cc1n(c2=S)Cc2c-1nc1cc(F)c(C)c3c1c2[C@@H](NC(=O)C1(O)CC1)CC3` [Example 17]: 1.83 nM.
With `CC[C@@]1(O)C(=O)OCc2c1cc1n(c2=S)Cc2c-1nc1cc(F)c(C)c3c1c2[C@@H](NC(=O)C(O)c1ccccc1)CC3` (stereo partly shown) [Example 5] the figure was 1.79 nM.
For `CC[C@@]1(O)C(=O)OCc2c1cc1n(c2=S)Cc2c-1nc1cc(F)c(C)c3c1c2[C@H](NC(=O)C(O)Cc1ccccc1)CC3` (stereo partly shown) [Example 8], halving of growth (GI50) required 4.95 nM.
